{"source": "PubChem BioAssay AID1996"}
{"details": "buffer; pH 7.4; 200.0 µM", "units": {"solubility kinetic": "µg/mL"}}
{"compound": "Cc1cc(C)c(NC(=O)CC(=O)c2ccccc2)c(Cl)c1", "solubility kinetic": 3.5}
{"compound": "COC(=O)COc1ccc(S(=O)(=O)N2CCCCCC2)cc1", "solubility kinetic": 42.9}
{"compound": "CC(C)(C)c1ccc(SCCc2ccccn2)cc1", "solubility kinetic": 1.1}
{"compound": "Cc1ccc(OCCn2cc(C(=O)O)c3ccccc32)cc1", "solubility kinetic": 44.3}
{"compound": "CCOC(=O)C1=C(COC(=O)C2CC(=O)N(CCc3ccccc3)C2)NC(=O)NC1C", "note": "(stereo not drawn)", "solubility kinetic": "> 64.4"}
{"compound": "CC(=O)c1ccc(OC(=O)CCNC(=O)c2ccccc2)cc1", "solubility kinetic": 27.6}
{"compound": "COc1ccc2nc(C)cc(Nc3ccc(C(=O)O)cc3)c2c1", "solubility kinetic": 40.5}
{"compound": "COCc1ccc(C(=O)Nc2cccc(S(=O)(=O)N(C)c3ccccc3)c2)cc1", "solubility kinetic": 15.7}
{"compound": "Cc1ccsc1C(=O)Nc1ccccc1N1CCCC1", "solubility kinetic": 27.6}
{"compound": "CN(CC(=O)NCc1ccco1)CC(=O)Nc1ccc(F)c(F)c1F", "solubility kinetic": 45.2}
{"compound": "CC(=O)c1cccc(NC(=O)C(C)OC(=O)CCc2nc3ccccc3c(=O)[nH]2)c1", "note": "(stereo not drawn)", "solubility kinetic": "> 61.1"}
{"compound": "CCc1ccccc1NC(=O)C1CCN(S(C)(=O)=O)CC1", "solubility kinetic": "> 46.6"}
{"compound": "Nc1c(C(=O)Nc2ccccc2)sc2ncc([N+](=O)[O-])cc12", "solubility kinetic": "< 0.2"}
{"compound": "NC(=O)c1cc(S(=O)(=O)NCc2ccc(F)cc2)cs1", "solubility kinetic": 47}
{"compound": "COc1ccc(CCC(=O)OCC(=O)Nc2sccc2C#N)cc1", "solubility kinetic": 22.9}
{"compound": "CNC(=O)COc1ccc(S(=O)(=O)N2CCCC2)cc1", "solubility kinetic": 40.9}
{"compound": "N#C/C(=C\\c1ccc(O)cc1)C(=O)NCc1ccccc1", "solubility kinetic": 2.4}
{"compound": "O=C(O)c1cn(C2CCCCC2)c2ccccc2c1=O", "solubility kinetic": "> 40.7"}
{"compound": "Cc1noc(C)c1C(=O)N(CC(C)C)c1nc2ccccc2s1", "solubility kinetic": 1.2}
{"compound": "O=[N+]([O-])c1ccc(CN2CCN(c3ccc([N+](=O)[O-])cc3)CC2)cc1", "solubility kinetic": 2}
{"compound": "Cc1ccccc1NCCC(=O)Nc1ccc(Cl)cc1", "solubility kinetic": "> 43.3"}
{"compound": "O=C(Nc1cc2c3c(c1)CC(=O)N3CCC2)c1ccccc1F", "solubility kinetic": 46.4}
{"compound": "Cc1cccc(NC(=O)c2nc[nH]c2C(=O)Nc2cccc(C)c2)c1", "solubility kinetic": 0.2}
{"compound": "CC(C)(C)c1ccccc1NC(=S)NC1CCCCC1", "solubility kinetic": 2.5}
{"compound": "CCC(CC)C(=O)Nc1ccc(S(=O)(=O)Nc2nccs2)cc1", "solubility kinetic": "> 53"}
{"compound": "Cc1cccc(C(=O)O/N=C(\\N)CS(=O)(=O)c2ccccc2)c1", "solubility kinetic": 1.6}
{"compound": "CC1CN(C(C)C)C(C)CC1OC(=O)c1ccccc1", "note": "(stereo not drawn)", "solubility kinetic": "> 41.3"}
{"compound": "Cc1ccc(C(=O)NC(=S)N2CCN(C)CC2)cc1Br", "solubility kinetic": 47.4}
{"compound": "COc1ccccc1C(=O)Nc1nc2cc3c(cc2s1)OCO3", "solubility kinetic": "< 0.4"}
{"compound": "Cc1ccc(C)c(S(=O)(=O)NCC(=O)N2CCCC2)c1", "solubility kinetic": 41.4}
{"compound": "CCCNC(=O)N1CCCC(C(N)=O)C1", "note": "(stereo not drawn)", "solubility kinetic": "> 32"}
{"compound": "Cc1nc2ncnn2c(C)c1Cc1cccc(C(F)(F)F)c1", "solubility kinetic": "> 45.9"}
{"compound": "O=C(c1ccc(F)cc1F)N1CCN(c2ccccn2)CC1", "solubility kinetic": "> 45.5"}
{"compound": "CC(=O)C1=C(O)C(=O)N(c2ccc(O)cc2)C1c1ccc(Cl)cc1", "note": "(stereo not drawn)", "solubility kinetic": 42.6}
{"compound": "CCC(=O)NC(=S)Nc1cccc(Cl)c1N1CCCC1", "solubility kinetic": 0.3}
{"compound": "COC(=O)c1ccc(N2CCN(C)CC2)c(NC(=O)c2cccnc2)c1", "solubility kinetic": 51.4}
{"compound": "CCOc1ccc(CN2C(=O)c3ccccc3C2=O)cc1C(=O)O", "solubility kinetic": "> 48.8"}
{"compound": "CC(=O)Cc1nsc(Nc2cccc(C)c2)n1", "solubility kinetic": 30.5}
{"compound": "CN1CCN(c2oc(-c3ccc([N+](=O)[O-])cc3)nc2C#N)CC1", "solubility kinetic": 4.1}
{"compound": "COc1ccc(NS(=O)(=O)c2ccc(C(=O)N(C)Cc3ccc(C)o3)cc2)cc1", "solubility kinetic": 61.1}
{"compound": "COc1ccccc1C(=O)NCCSCc1c(F)cccc1Cl", "solubility kinetic": 13.6}
{"compound": "O=C1CCCC2=C1C(c1ccncc1)n1c(nc3ccccc31)N2", "note": "(stereo not drawn)", "solubility kinetic": 6.7}
{"compound": "COc1cc(NC(=O)CCN2CC(C)OC(C)C2)cc(OC)c1", "note": "(stereo not drawn)", "solubility kinetic": 34.3}
{"compound": "O=C(O)CC(c1ccccc1F)N1Cc2ccccc2C1=O", "note": "(stereo not drawn)", "solubility kinetic": 43.7}
{"compound": "COc1cccc(NC(=O)c2cc(-c3ccco3)nc3ccccc23)c1", "solubility kinetic": "< 0.4"}
{"compound": "O=C(CCN=C1NS(=O)(=O)c2ccccc21)Nc1ccc(F)cc1Cl", "solubility kinetic": "> 57.3"}
{"compound": "O=S(=O)(c1ccccc1)N1CCN(CCc2ccccc2)CC1", "solubility kinetic": 1.7}
{"compound": "O=C(Cc1cccc2ccccc12)Nc1cc(Cl)ccc1C(=O)O", "solubility kinetic": "> 51"}
{"compound": "CC(=O)Nc1ccc(CCc2nc3ccccc3[nH]2)cc1", "solubility kinetic": "> 41.9"}
{"compound": "CC(CCc1ccccc1)NC(=O)CCC(=O)N1CCC(C(N)=O)CC1", "note": "(stereo not drawn)", "solubility kinetic": 48.7}
{"compound": "COc1cc2ccccc2cc1C(=O)Nc1ccc(N2CCOCC2)cc1", "solubility kinetic": 0.8}
{"compound": "Cn1c(=O)n(C)c2cc(S(=O)(=O)Nc3ccc(F)cc3)ccc21", "solubility kinetic": 33.5}
{"compound": "CSc1ccccc1C(=O)N1CCCCC1", "solubility kinetic": "> 35.3"}
{"compound": "O=S(=O)(Cc1ccccc1)Nc1cccc(F)c1", "solubility kinetic": 37.6}
{"compound": "Nc1nc(O)c(Sc2ccccc2[N+](=O)[O-])c(=O)[nH]1", "solubility kinetic": "> 42"}
{"compound": "COc1cccc(CNC(=O)COC(=O)/C=C/c2ccc(SC)cc2)c1", "solubility kinetic": 3.8}
{"compound": "CCN(CC)Cc1c(O)ccc2c(=O)c(-c3ccccc3Cl)coc12", "solubility kinetic": "> 53.7"}
{"compound": "O=C1C2CCCCN2C(=O)N1CCCCN1CCN(c2ccc(F)cc2)CC1", "note": "(stereo not drawn)", "solubility kinetic": 43.5}
{"compound": "CC(C)N(Cc1ccccc1)C(=O)COC(=O)c1cnccn1", "solubility kinetic": "> 47"}
{"compound": "COc1cc(SC)ccc1C(=O)OCC(=O)N1CCCC1", "solubility kinetic": "> 46.4"}
{"compound": "COc1ccccc1-c1c(C)nn2c(N3CCOCC3)cc(C)nc12", "solubility kinetic": "> 50.8"}
{"compound": "CCN(CC)CC#CC(OC)(c1ccccc1)c1ccccc1.Cl", "solubility kinetic": 29.5}
{"compound": "O=C(O)/C=C/C(=O)Nc1ccc(Cl)c(C(=O)O)c1", "solubility kinetic": 38}
{"compound": "CC1CCN(C(=O)c2ccc3ccccc3c2)CC1", "solubility kinetic": 23.8}
{"compound": "O=C(NC1CCCc2ccccc21)c1cn2ccccc2n1", "note": "(stereo not drawn)", "solubility kinetic": 39.7}
{"compound": "CCc1cccc2c(C(=O)C(NC(C)CC)c3ccccc3)c[nH]c12", "note": "(stereo not drawn)", "solubility kinetic": 42.8}
{"compound": "CNC(=O)c1cc(S(=O)(=O)Nc2ccc3c(c2)OCCO3)ccc1C", "solubility kinetic": "> 54.4"}
{"compound": "CCCc1nnc(SCC(=O)Nc2cc(C)on2)n1CCOC", "solubility kinetic": "> 50.9"}
{"compound": "CCNc1nc(NCC)nc(Oc2ccc(C(=O)OC)cc2)n1", "solubility kinetic": 2.8}
{"compound": "CC(C)(C)c1ccc(O)c(N=Cc2c(O)ccc3ccccc23)c1", "solubility kinetic": "< 0.7"}
{"compound": "Cc1cc(C)c2oc(=O)cc(CN3CCC(C)CC3)c2c1", "solubility kinetic": 4.1}
{"compound": "Cc1ccc(N2C(=O)CS/C2=N\\C(=S)Nc2ccccc2)cc1", "solubility kinetic": 1}
{"compound": "COc1ccc(OCCN(C)CC(=O)Nc2ccccc2SC)cc1", "solubility kinetic": 21.2}
{"compound": "COc1cccc(OCC(=O)NC2CCCCCC2)c1", "solubility kinetic": "> 41.6"}
{"compound": "S=C(NCCc1ccccc1)NCCc1cnc[nH]1", "solubility kinetic": "> 41.2"}
{"compound": "O=C1Nc2ccccc2/C1=C\\C(=O)c1ccccc1", "solubility kinetic": 5.1}
{"compound": "Cc1cccc(NC(=O)c2ccc3nccnc3c2)n1", "solubility kinetic": "> 39.6"}
{"compound": "CCOC(=O)C1=C(C)NC(C)=C(C(=O)OCC)C1C(=O)OCC(=O)NCc1ccco1", "solubility kinetic": "> 65.2"}
{"compound": "COc1ccnc2c1c(=O)n(Cc1ccc(Cl)cc1)c(=O)n2C", "solubility kinetic": 9.3}
{"compound": "COc1ccccc1Nc1nc(C)nc2c1oc1ccccc12.Cl", "solubility kinetic": 0.5}
{"compound": "Cc1ccc2nc(SCC(=O)Nc3ncccn3)[nH]c2c1", "solubility kinetic": "> 44.9"}
{"compound": "O=C(NCc1ccco1)Nc1ccc(OC(F)(F)F)cc1", "solubility kinetic": 11.1}
{"compound": "CN(C)c1ccc(Nc2cc(Cl)ncn2)cc1", "solubility kinetic": 9}
{"compound": "CC1CN(C(=O)CS(=O)(=O)Cc2ccccc2)CC(C)O1", "note": "(stereo not drawn)", "solubility kinetic": "> 46.7"}
{"compound": "COc1ccccc1C(=O)NC1CCCc2ccccc21", "note": "(stereo not drawn)", "solubility kinetic": 33.2}
{"compound": "CC(C)CNC(=O)CSc1nnc2ccccn12", "solubility kinetic": "> 39.7"}
{"compound": "COc1cc(OC)cc(C(=O)NC(c2ccccc2)c2ccccc2)c1", "solubility kinetic": "< 0.7"}
{"compound": "Cc1[nH]c2ccc(C(=O)NCCCN3CCOCC3)cc2c1C", "solubility kinetic": "> 47.3"}
{"compound": "Cc1cc(C(=O)OCC(=O)NC2CCC(C)CC2)c(C)o1", "note": "(stereo not drawn)", "solubility kinetic": 11.6}
{"compound": "O=C(Nc1nccs1)[C@@H]1CCCN1S(=O)(=O)c1ccc(Cl)cc1", "solubility kinetic": 31.5}
{"compound": "Cc1ccc(NC2(C#N)C(=O)Nc3ccccc32)cc1C", "note": "(stereo not drawn)", "solubility kinetic": 23.3}
{"compound": "O=Cc1c(-c2ccccc2)nc2ccccn12", "solubility kinetic": "> 33.3"}
{"compound": "O=C(COC(=O)c1ccccc1F)NC1CC1", "solubility kinetic": "> 35.6"}
{"compound": "CC(=O)CC(C)(C)Nc1nc2cc([N+](=O)[O-])ccc2o1", "solubility kinetic": 1.1}
{"compound": "COc1ccc(CCNC(=O)C(=O)N2CCCC2)cc1OC", "solubility kinetic": 39.7}
{"compound": "COc1ccccc1CNC(=O)COC(=O)Cc1ccc(Br)cc1", "solubility kinetic": 13.7}
{"compound": "CC(=O)c1cccc(OCC(=O)N2CCCc3ccccc32)c1", "solubility kinetic": 44.6}
{"compound": "COc1cc2c(cc1OC)/C(=C/C(=O)c1ccc(C)cc1)NCC2", "solubility kinetic": 24.8}
{"compound": "O=C(COc1ccccc1Cl)Nc1ccc2c(c1)OCO2", "solubility kinetic": 1.2}
{"compound": "COc1ccc(OC)c(Nc2nc(-c3ccncc3)nc3ccccc23)c1", "solubility kinetic": "< 0.2"}
{"compound": "N#Cc1c(-c2cccc([N+](=O)[O-])c2)nc2n(c1=O)CCS2", "solubility kinetic": "> 45"}
{"compound": "CNC(=O)N1c2ccccc2C=Cc2ccccc21", "solubility kinetic": "> 37.5"}
{"compound": "CN(C)S(=O)(=O)c1ccc(Cl)c(C(=O)OCC(=O)c2ccco2)c1", "solubility kinetic": "> 55.8"}
{"compound": "O=C1CCC([N+](=O)[O-])C(c2ccccc2Br)N1", "note": "(stereo not drawn)", "solubility kinetic": "> 44.9"}
{"compound": "Cc1ccc(NC(=O)c2cccnc2C(=O)O)nc1", "solubility kinetic": "> 38.6"}
{"compound": "OC(CNCc1ccccc1C(F)(F)F)C(F)(F)F", "note": "(stereo not drawn)", "solubility kinetic": "> 43.1"}
{"compound": "Cc1ccc(-c2csc(NC(=O)C3CC(=O)N(Cc4ccco4)C3)n2)cc1", "note": "(stereo not drawn)", "solubility kinetic": 12.1}
{"compound": "NC(=O)NC(Cc1ccccc1)C(=O)NNC(=O)COc1ccccc1Cl", "note": "(stereo not drawn)", "solubility kinetic": "> 58.6"}
{"compound": "O=C(/C=C/Nc1ccc(S(=O)(=O)Nc2ncccn2)cc1)c1cccs1", "solubility kinetic": 6.7}
{"compound": "CC(C)c1ccc(C(=O)NCCCN2CCOCC2)cc1", "solubility kinetic": "> 43.6"}
{"compound": "CCN(CC)CCCNCC(=O)Nc1ccc2c(c1)CCC2", "solubility kinetic": 24.3}
{"compound": "O=S(=O)(c1ccccc1)N1CCN2CCCC2C1", "note": "(stereo not drawn)", "solubility kinetic": "> 40"}
{"compound": "Cc1cc(F)ccc1S(=O)(=O)N(CC(=O)N1CCOCC1)CC(=O)N1CCOCC1", "solubility kinetic": "> 66.5"}
{"compound": "Cc1ccc(C2C(N)C(=O)N2c2ccc(C)cc2)cc1", "note": "(stereo not drawn)", "solubility kinetic": "> 40"}
{"compound": "CC(C)(C)NC(=O)c1cccc2c1-c1ccccc1C2=O", "solubility kinetic": 29.8}
{"compound": "Cc1cc([N+](=O)[O-])ccc1NC(=O)c1cc2ccccc2o1", "solubility kinetic": "< 0.3"}
{"compound": "CCOC(=O)C1=C(C)NC(C)=C(C(=O)OC)C1c1ccco1", "note": "(stereo not drawn)", "solubility kinetic": 34.1}
{"compound": "CC1(C)Cc2c(C#N)c(NCCO)nc(-c3ccco3)c2CO1", "solubility kinetic": 37.4}
